Test results from US20220204497A1, “NOVEL COMPOUND HAVING ANTICANCER ACTIVITY, AND METHOD FOR PRODUCING SAME” (MEDICINAL BIOCONVERGENCE RESEARCH CENTER, priority 2019, published 2022).
Where “and” joins values, the source holds several entries; their conditions need not be identical. Equal entries are not always repeated.

How the values were obtained:
[1] = tested on: A549 cells; assay: Cell viability by MTT method in A549 cells; format: cell-based; design: concentration or dose not given beside the values; settings: 72 hours treatment
[2] = molecular target: T1, AIMP2-DX2 (Homo sapiens, UniProt Q13155); assay: DX2-nanoluciferase assay (DX2 expression change) in transfected A549 cells; settings: for inhibition at 10 µM / inhibition at 40 µM: A549, 4 h; for inhibition at 10 µM: read-out: DX-Nanoluciferase activity (10 μM), 10 μM, 4 hours treatment, A549 cells transfected with nanoluciferase-DX2; for inhibition at 40 µM: read-out: DX-Nanoluciferase activity (40 μM), 40 μM, 4 hours treatment, A549 cells transfected with nanoluciferase-DX2
T1 sequence (Q13155 1-251 isoform Q13155-2): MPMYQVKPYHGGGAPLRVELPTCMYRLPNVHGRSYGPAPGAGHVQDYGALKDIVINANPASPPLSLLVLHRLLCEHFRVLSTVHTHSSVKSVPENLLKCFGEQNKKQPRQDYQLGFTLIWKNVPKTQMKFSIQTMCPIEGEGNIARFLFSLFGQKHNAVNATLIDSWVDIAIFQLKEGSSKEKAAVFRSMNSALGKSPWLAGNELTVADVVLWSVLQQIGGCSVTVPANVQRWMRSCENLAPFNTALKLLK
Experimental: After cloning DX2 into a plasmid expressing nanoluciferase, the plasmid was transfected into A549 cells. Transfected cells were seeded 1×10^4 per well in a 96-well plate and stabilized for 12 hours. […] Cell viability was measured by the MTT method after 72 hours of treatment with each concentration of the compound in A549 cells.

[3] = 4 hours treatment, A549 cells transfected with nanoluciferase-DX2
[4] = inhibitory effect on AIMP2-DX2 expression

| SMILES | inhibition at 10 µM [2] [%] | DX-Nanoluciferase activity (10 μM) [2, 3] | inhibition at 40 µM [2, 4] [%] | DX-Nanoluciferase activity (40 μM) ([2]; 40 μM, 4 hours treatment, A549 cells transfected with nanoluciferase-DX2, inhibitory effect on AIMP2-DX2 expression) | Cell Viability (% inhibition) (A549) [1] |
| --- | --- | --- | --- | --- | --- |
| CC(C)(C)OC(=O)N[C@@H](Cc1c[nH]c2ccccc12)C(=O)Nc1ccc(N2CCOCC2)cc1 [Compound 118, (S)-tert-Butyl 3-(1H-Indol-3-yl)-1-(4-morpholinophenylamino)-1-oxopropan-2-ylcarbamate] | 8.22 ± 5.02 |  |  |  | 9.26 ± 7.63% |
| Cc1ccc(S(=O)(=O)N[C@@H](Cc2c[nH]c3ccccc23)C(=O)O)cc1 [Compound 119, (S)-3-(1-Indol-3-yl)-2-(4-methylphenylsulfonamido)propanoic acid] |  | 14.92 ± 10.18 |  |  | 1.59 ± 8.71% |
| COc1cc(N2CCN(C(=O)OC(C)(C)C)CC2)ccc1NC(=O)[C@H](Cc1c[nH]c2ccccc12)NS(=O)(=O)c1ccc(C)cc1 [Compound 120, (S)-tert-Butyl 4-(4-(3-(1H-indol-3-yl)-2-(4-methylphenylsulfonamido)propanamido)-3-methoxyphenyl)piperazine-1-carboxylate] | 21.3 ± 14.2 |  |  |  | 66.51 ± 1.24% |
| COc1cc(N2CCNCC2)ccc1NC(=O)[C@H](Cc1c[nH]c2ccccc12)NS(=O)(=O)c1ccc(C)cc1 [Compound 121, (S)-3-(1H-indol-3-yl)-N-(2-methoxy-4-(piperazin-1-yl)phenyl)-2-(4-methylphenylsulfonamido)propanamide] | 41.7 ± 17.3 |  |  |  | 51.15 ± 0.5% |
| Cc1ccc(S(=O)(=O)N[C@@H](Cc2c[nH]c3ccccc23)C(=O)Nc2ccc(N3CCN(C(=O)OC(C)(C)C)CC3)cc2)cc1 [Compound 122, (S)-tert-Butyl 4-(4-(3-(1H-indol-3-yl)-2-(4-methylphenylsulfonamido)propanamido)phenyl)piperazine-1-carboxylate] | 38 ± 1.7 |  |  |  | 69.45 ± 1.3% |
| COc1cc(N2CCOCC2)ccc1NC(=O)[C@H](Cc1c[nH]c2ccccc12)NS(=O)(=O)c1ccc(C)cc1 [Compound 123, (S)-3-(1H-indol-3-yl)-N-(2-methoxy-4-morpholinophenyl)-2-(4-methylphenylsulfonamido)propanamide] | 22.4 ± 11.8 |  |  |  | 34.01 ± 10.45% |
| Cc1ccc(S(=O)(=O)N[C@@H](Cc2c[nH]c3ccccc23)C(=O)Nc2ccc(N3CCNCC3)cc2)cc1 [Compound 124, (S)-3-(1H-indol-3-yl)-2-(4-methylphenylsulfonamido)-N-(4-(piperazin-1-yl)phenyl)propanamide] | 20.9 ± 9.8 |  |  |  | 16.44 ± 18.56% |
| Cc1ccc(S(=O)(=O)N[C@@H](Cc2c[nH]c3ccccc23)C(=O)OCc2ccccc2)cc1 [Compound 127, (S)-Benzyl 3-(1H-indol-3-yl)-2-(4-methylphenylsulfonamido)propanoate] |  |  | 49.9 ± 1.6 |  | 94.24 ± 0.54% |
| Cc1ccc(C(=O)N[C@@H](Cc2c[nH]c3ccccc23)C(=O)OCc2ccccc2)cc1 [Compound 128, (S)-Benzyl 3-(1H-indol-3-yl)-2-(4-methylbenzamido)propanoate] |  |  | 36.8 ± 8.13 |  | 63.08 ± 7.72% |
| Cc1ccc(C(=O)N[C@@H](Cc2c[nH]c3ccccc23)C(=O)Nc2ccc(N3CCOCC3)cc2)cc1 [Compound 129, (S)—N-(3-(1 Indol-3-yl)-1-(4-morpholinophenylamino)-1-oxopropan-2-yl)-4-methylbenzamide] |  |  |  | 53.02 ± 9.60 | 60.35 ± 3.98% |
| Cc1ccc(S(=O)(=O)NCC(=O)N2CCOCC2)cc1 [Compound 155, 4-Methyl-N-(2-morpholino-2-oxoethyl)benzenesulfonamide] |  |  | 31.3 ± 4.4 |  | 17.30 ± 0.81% |
| Cc1ccc(S(=O)(=O)NC2(C(=O)N3CCOCC3)CCCCC2)cc1 [Compound 156, 4-Methyl-N-(1-(morpholine-4-carbonyl)cyclohexyl)benzenesulfonamide] |  |  | -0.2 ± 6.6 |  | 13.51 ± 2.04% |
| O=C(Nc1ccc(N2CCOCC2)cc1)[C@H](Cc1c[nH]c2ccccc12)NS(=O)(=O)c1ccc(O)cc1 [Compound 158, (S)-2-(4-Hydroxyphenylsulfonamido)-3-(1H-indol-3-yl)-N-(4-morpholinophenyl)propanamide] | -7.04 ± 4.87 |  |  |  | 24.87 ± ? .01% |
| O=C(O)c1ccc(S(=O)(=O)N[C@@H](Cc2c[nH]c3ccccc23)C(=O)Nc2ccc(N3CCOCC3)cc2)cc1 [Compound 159, (S)-4-(N-(3-(1-indol-3-yl)-1-(4-morpholinophenylamino)-1-oxopropan-2-yl)sulfamoyl)benzoic acid] |  | 1.75 ± 8.96 (10 μM) |  |  | 24.60 ± ? .96% |
| N[C@@H](Cc1c[nH]c2ccccc12)C(=O)Nc1ccc(N2CCOCC2)cc1 [Compound 160, (S)-2-Amino-3-(1-indol-3-yl)-N-(4-morpholinophenyl)propanamide] |  | 14.92 ± 17.49 (10 μM) |  |  | 15.52 ± 9.58% |
| CC(=O)N1CCN(c2ccc(NC(=O)[C@H](Cc3c[nH]c4ccccc34)NS(=O)(=O)c3ccc(C)cc3)cc2)CC1 [Compound 162, (S)—N-(4-(4-Acetylpiperazin-1-yl)phenyl)-3-(1H-indol-3-yl)-2-(4-methylphenylsulfonamido)propanamide] | 20.6 ± 3.17 |  |  |  | 19.92 ± 16.25% |
| Cc1ccc(S(=O)(=O)N[C@@H](Cc2c[nH]c3ccccc23)C(=O)NC(C)C)cc1 [Compound 180, (S)-3-(1H-indol-3-yl)-N-isopropyl-2-(4-methylphenylsulfonamido)propanamide] |  |  | 4.04 ± 4.08 |  | 28.20 ± 5.02% |
| CC(C)NC(=O)[C@H](Cc1c[nH]c2ccccc12)NS(=O)(=O)c1ccc(Br)cc1 [Compound 181, (S)-2-(4-Bromophenylsulfonamido)-3-(1H-indol-3-yl)-N-isopropylpropanamide] |  |  | 44.1 ± 2.97 |  | 98.95 ± 0.74% |

Now from value to compound, other results behind:

| inhibition at 10 µM [2] [%] | DX-Nanoluciferase activity (10 μM) [2, 3] | inhibition at 40 µM [2, 4] [%] | DX-Nanoluciferase activity (40 μM) ([2]; 40 μM, 4 hours treatment, A549 cells transfected with nanoluciferase-DX2, inhibitory effect on AIMP2-DX2 expression) | SMILES | Cell Viability (% inhibition) (A549) [1] |
| --- | --- | --- | --- | --- | --- |
|  | 69.62 ± 3.16 (10 μM) |  |  | COc1ccc(C(=O)NNC(=O)[C@H](Cc2c[nH]c3ccccc23)NS(=O)(=O)c2ccc(C)cc2)cc1 [Compound 182, (S)—N-(3-(1H-indol-3-yl)-1-(2-(4-methoxybenzoyl)hydrazinyl)-1-oxopropan-2-yl)-4-methylbenzenesulfonamide] | 0.19 ± 15.38% |
| 68.1 ± 8.2 |  |  |  | COc1ccc(NC(=O)NNC(=O)[C@H](Cc2c[nH]c3ccccc23)NS(=O)(=O)c2ccc(C)cc2)cc1 [Compound 183, (S)-2-(3-(1H-indol-3-yl)-2-(4-methylphenylsulfonamido)propanoyl)-N-(4-methoxyphenyl)hydrazinecarboxamide] | 42.25 ± 5.21% |
| 78.4 |  |  |  | Cc1cc(C)n(C(=O)[C@H](Cc2c[nH]c3ccccc23)NS(=O)(=O)c2ccc(Br)cc2)n1 [Compound 184, (S)-4-Bromo-N-(1-(3,5-dimethyl-1H-pyrazol-1-yl)-3-(1H-indol-3-yl)-1-oxopropan-2-yl)benzenesulfonamide] | −24.64 ± 2.77% |
|  | 78.43 ± 6.05 (10 μM) |  |  | Cc1ccc(S(=O)(=O)N[C@@H](Cc2c[nH]c3ccccc23)C(=O)NNC(=O)C23CC4CC(CC(C4)C2)C3)cc1 [Compound 186, N—((S)-1-(2-((3S,5S,7S)-adamantane-1-carbonyl)hydrazinyl)-3-(1H-indol-3-yl)-1-oxopropan-2-yl)-4-methylbenzenesulfonamide] | 59.96 ± 10.37% |
| 34.9 ± 10.6 |  |  |  | Cc1ccc(-c2csc(NC(=O)[C@H](Cc3c[nH]c4ccccc34)NS(=O)(=O)c3ccc(Br)cc3)n2)cc1 [Compound 187, (S)-2-(4-Bromophenylsulfonamido)-3-(1H-indol-3-yl)-N-(4-(p-tolyl)thiazol-2-yl)propanamide] | 61.41 ± 4.21% |
| 61.1 ± 12.9 |  |  |  | Cc1ccc(S(=O)(=O)N[C@@H](Cc2c[nH]c3ccccc23)C(=O)NCCc2ccccc2)cc1 [Compound 188, (S)-3-(1H-indol-3-yl)-2-(4-methylphenylsulfonamido)-N-phenethylpropanamide] | 53.90 ± 1.97% |
|  | 8.09 ± 6.94 (10 μM) |  |  | COc1ccc(C(=O)NNC(=O)[C@H](Cc2c[nH]c3ccccc23)NS(=O)(=O)c2ccc(C)cc2)cc1 [Compound 191, (S)—N-(3-(1H-Indol-3-yl)-1-(2-(4-methoxybenzoyl)hydrazinyl)-1-oxopropan-2-yl)-4-methylbenzenesulfonamide] | 49.17 ± 2.36% |
| 15.5 ± 3.27 |  |  |  | N#Cc1ccc(-c2csc(NC(=O)[C@H](Cc3c[nH]c4ccccc34)NS(=O)(=O)c3ccc(Br)cc3)n2)cc1 [Compound 192, (S)-2-(4-Bromophenylsulfonamido)-N-(4-(4-cyanophenyl)thiazol-2-yl)-3-(1H-Indol-3-yl)propanamide] | 81.69 ± 2.49% |
| 49.3 ± 9.52 |  |  |  | O=C(Nc1nc(-c2ccc(C(F)(F)F)cc2)cs1)[C@H](Cc1c[nH]c2ccccc12)NS(=O)(=O)c1ccc(Br)cc1 [Compound 193, (S)-2-(4-Bromophenylsulfonamido)-3-(1H-Indol-3-yl)-N-(4-(4-(trifluoromethyl)phenyl)thiazol-2-yl)propanamide] | 88.98 ± 0.59% and 88.98 ± 10.59% |
